The text below walks through data of PMC12067093, “Discovery and optimisation of a covalent ligand for TRIM25 and its application to targeted protein ubiquitination” (Chemical Science, 2025).

The target in one assay is T1, TRIM25 PRYSPRY (Homo sapiens, UniProt Q14258).
T1 construct: His6-TEV (cleaved yes); made in house; host or cells: Sf9 insect cells (baculovirus)
As to the kind of experiment: Intact protein LCMS covalent labelling of recombinant TRIM25 PRYSPRY. The format is binding. Particulars: TRIM25 PRYSPRY 10 μM, 4 °C; for TRIM25 PRYSPRY labelling (%): purified compound 50 μM, 24 h; for TRIM25 PRYSPRY labelling: heterobifunctional compound 50 μM, 20 hours. The method, then: 1 resin (ThermoFisher Scientific, 89964), eluted in 100 mM HEPES pH 7, 500 mM NaCl,
2 300 mM Imidazole, 5% glycerol, 1 mM TCEP, and stored at -80 °C.
5 into a pET49 vector with a His6-HRV-3C (Human Rhinovirus) tag and expressed in
6 BL21 E.coli cells (Agilent Technologies; 230132), with induction at 18 °C overnight by
7 addition of isopropyl β-D-1-thiogalactopyranoside (0.5 mM). Cells were harvested by
8 centrifugation at 4000 rpm in a Beckman J6-M1 rotor for 30 min at 4 °C, the
9 supernatant was discarded and cell pellets were either immediately lysed, or stored at
10 -80°C. The protein was purified via His6-capture on HisPurTM Ni-NTA resin in buffer
11 50 mM HEPES pH 7.5, 300 mM NaCl, 0.5 mM TCEP, 20 mM imidazole, washed
12 extensively with both high salt buffer (50 mM HEPES pH 7.5, 1 M NaCl, 0.5 mM TCEP,
13 20 mM imidazole) and wash buffer (50 mM HEPES pH 7.5, 300 mM NaCl, 0.5 mM
14 TCEP, 20 mM imidazole) before elution in buffer 50 mM HEPES pH 7.5, 300 mM NaCl,
15 0.5 mM TCEP, 500 mM imidazole, and tag cleavage with HRV-3C protease. Cleaved
16 protein was further purified by ion exchange chromatography and size exclusion
17 chromatography into 20 mM HEPES pH 7.5, 150 mM NaCl, 0.5 mM TCEP, and stored
21 For the original chloroacetamide fragment screen, 0.25 μM TRIM25 PRYSPRY or
23 25 mM HEPES pH 7.5, 50 mM NaCl buffer. For intact protein liquid chromatography
24 mass spectrometry (LCMS) kinetic characterisation, 0.5 μM TRIM25 PRYSPRY was
25 used. For selectivity testing with recombinant ubiquitin system protein panel, 10 µM
27 7.5, 50 mM NaCl buffer. Samples were then diluted to 0.5 µM for TRIM25 PRYSPRY,
28 TRIM21 PRYSPRY, OTUD7B OTU, ZRANB1 OTU or 1 µM for TRIM2 NHL, UBCH5B,
29 UBC13K92A, UEV1A, OTUD4 OTU, before injection into the LCMS. For TRIM25
30 PRYSPRY mutants, and for labelling of heterobifunctional compounds, 10 µM protein
32 mM NaCl buffer, and samples were diluted to 1 µM protein before injection into the […]

Assay [1] concerns the target T2, BRD4 (ubiquitination by TRIM25) (Homo sapiens, UniProt O60885+Q14258).
T2 construct: Recombinant full-length BRD4 (short isoform); Full-length TRIM25 (4 μM) was pre-labelled with either DMSO or compound HB1, HB2 or HB3; made in house; host or cells: Sf9 insect cells (full-length TRIM25); UBA1 and UBCH5B were made as previously described
In words: In vitro targeted protein ubiquitination time course assay for BRD4. The conditions noted are these: TRIM25 4 μM pre-labelled with compound 50 μM, 20 h, 4 °C, excess removed (HB1a 4 μM added directly); 60 min at 30 °C. The format is biochemical. The method, then:
1 containing 500 mM DTT (ThermoFisher Scientific, R0861). Timepoint at 0 min
2 indicates the sample taken prior to the addition of ATP. Samples were analysed by
3 SDS-PAGE and imaged by Coomassie staining, and using the Odyssey CLx Infrared
4 Imaging System (Li-Cor).
6 For targeted protein ubiquitination assays with compounds HB1 – HB3, His10-TRIM25
8 DMSO) or compound HB1, HB2 or HB3 (50 µM, 1% DMSO) in buffer 50 mM HEPES
9 pH 7.5, 150 mM NaCl, 0.5 mM TCEP for 20 h at 4 °C. Protein-compound complexes
11 capture buffer 50 mM Tris pH 7.5, 150 mM NaCl, 5 mM MgCl2, 20 mM imidazole, 0.5
12 mM TCEP, 0.5% IGEPAL for 2 h at 4 °C, with rotation. Beads were washed once with
13 capture buffer to remove excess unreacted compound. Ubiquitination assay reaction
14 mixture comprised components as described above, with the addition of 4 µM BRD4
15 substrate. For reaction with control compound HB1a (JQ1-2PEG), 4 µM HB1a was
16 added directly to the ubiquitination assay reaction mixture. Samples were analysed as
17 described above, and by western blotting against BRD4 (Abcam, ab128874, 1:1000),
18 which was detected by anti-rabbit-HRP secondary antibody (Dako, P0399, 1:2000).
19 Blots were developed in Amersham ECL Western Blotting Detection Reagent (Cytiva,
20 RPN2106), imaged on a ChemiDoc MP Imaging System (Bio-Rad), and bands were
21 analysed in ImageLab (Bio-Rad). […]

T2 sequence (Q14258 whole entry, other chains not shown, canonical isoform): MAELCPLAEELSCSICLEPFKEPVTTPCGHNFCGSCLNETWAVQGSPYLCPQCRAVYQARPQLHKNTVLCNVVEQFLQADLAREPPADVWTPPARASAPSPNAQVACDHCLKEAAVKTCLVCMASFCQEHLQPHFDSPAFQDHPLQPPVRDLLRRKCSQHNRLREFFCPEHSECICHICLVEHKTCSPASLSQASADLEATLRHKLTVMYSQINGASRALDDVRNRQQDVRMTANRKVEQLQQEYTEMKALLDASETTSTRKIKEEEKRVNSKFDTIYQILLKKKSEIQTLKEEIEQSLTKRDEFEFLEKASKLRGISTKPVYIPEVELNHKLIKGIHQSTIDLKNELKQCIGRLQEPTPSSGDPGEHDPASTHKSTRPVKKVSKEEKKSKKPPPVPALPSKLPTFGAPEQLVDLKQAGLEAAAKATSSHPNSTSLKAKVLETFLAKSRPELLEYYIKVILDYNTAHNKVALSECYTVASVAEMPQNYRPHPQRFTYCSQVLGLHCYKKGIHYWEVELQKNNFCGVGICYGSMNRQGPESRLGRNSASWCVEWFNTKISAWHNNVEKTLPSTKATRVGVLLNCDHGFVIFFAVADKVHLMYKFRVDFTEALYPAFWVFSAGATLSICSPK
T1 sequence (Q14258 435-630): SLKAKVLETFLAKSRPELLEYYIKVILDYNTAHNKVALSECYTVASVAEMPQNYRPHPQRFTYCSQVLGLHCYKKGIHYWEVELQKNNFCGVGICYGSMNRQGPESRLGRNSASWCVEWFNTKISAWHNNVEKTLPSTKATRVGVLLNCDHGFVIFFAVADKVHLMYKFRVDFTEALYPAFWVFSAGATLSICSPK

Take `Cc1cc(C(=O)N2CCCN(C(=O)CCl)CC2)ccc1-c1ccccc1` [Compound 10]: on TRIM25 PRYSPRY, the “TRIM25 PRYSPRY labelling (%)” value is recorded as 94%. Also, the “targeted ubiquitination of BRD4 by TRIM25” value (“targeted ubiquitination” for short) in assay [1] is given as “no targeted ubiquitination of BRD4 was observed”.

With `CC1Cc2ccccc2N1C(=O)C1CCCN(C(=O)CCl)C1` (stereo not drawn) [Compound 11], the “TRIM25 PRYSPRY labelling (%)” value at TRIM25 PRYSPRY is given as 96%.

For `Cc1cc(C(=O)N2CCCN(C(=O)CCl)CC2)ccc1-c1cccc(C(=O)NCCOCCOCCNC(=O)C[C@@H]2N=C(c3ccc(Cl)cc3)c3c(sc(C)c3C)-n3c(C)nnc32)c1` [HB1], the “TRIM25 PRYSPRY labelling” value at TRIM25 PRYSPRY is listed as 49%. Further, the “targeted ubiquitination” value in assay [1] is “heterobifunctional compound-induced ubiquitination of BRD4”.

For the compound `Cc1cc(C(=O)N2CCCN(C(=O)CCl)CC2)ccc1-c1cccc(C(=O)NCCOCCOCCOCCNC(=O)C[C@@H]2N=C(c3ccc(Cl)cc3)c3c(sc(C)c3C)-n3c(C)nnc32)c1` [HB2], the “TRIM25 PRYSPRY labelling” value on TRIM25 PRYSPRY was 75%. In assay [1], the “targeted ubiquitination” value is recorded as “heterobifunctional compound-induced ubiquitination of BRD4”.

With `Cc1cc(C(=O)N2CCCN(C(=O)CCl)CC2)ccc1-c1cccc(C(=O)NCCOCCOCCOCCOCCNC(=O)C[C@@H]2N=C(c3ccc(Cl)cc3)c3c(sc(C)c3C)-n3c(C)nnc32)c1` [HB3], the “TRIM25 PRYSPRY labelling” value at TRIM25 PRYSPRY was found to be 87%. For the same compound, in assay [1], the “targeted ubiquitination” value is “heterobifunctional compound-induced ubiquitination of BRD4”.
